Key:
[1] = test system: MIN6 cell; experiment: Insulin secretion promoting activity for cultured β-cells, in the presence of 14.5 mmol/L glucose; assay type: cell-based; conditions: none: 148.4
Method: (§1) Further, the insulin secretion of the MIN6 cell is prompted in response to sulfonylurea-agents such as glibenclamide, which are used as a medicament for treatment of diabetes (Cellular Signalling, vol. 5, p. 777-786, 1993).
Culture of the MIN6 cells above and insulin secretion test utilizing the MIN6 cells were performed according to the methods described in Diabetologia, vol. 36, p. 1139-1145, 1993. The effect of a compound on the insulin secretion in the presence of 14.5 mmol/L glucose was determined by measuring insulin amounts in cell culture supernatants collected as follows. MIN6 cells cultured on a 24-well plate were washed twice by using 1 mL of Buffer A (119 mmol/L sodium chloride, 4.74 mmol/L potassium chloride, 2.54 mmol/L calcium chloride, 1.19 mmol/L magnesium sulfate, 1.19 mmol/L potassium dihydrogenphosphate, 10 mmol/L 2-[4-(2-hydroxyethyl)-1-piperazinyl]ethanesulfonic acid, and 0.1% bovine serum albumin, pH 7.3) containing 2 mmol/L glucose, and then were incubated in 1 mL of Buffer A containing 2 mmol/L glucose at 37° C. for 45 minutes. After the incubation, the culture supernatant was changed to Buffer A (0.9 mL) containing a test compound at various concentrations and 2 mmol/L glucose, and the cells were further incubated at 37° C. for 15 minutes. […]

[2] = test system: MIN6 cell; experiment: Insulin secretion promoting activity for cultured β-cells, in the presence of 5 mmol/L glucose; assay type: cell-based; conditions: for Insulin secretion amount (ng/mL) Avg: 5 mmol/L glucose, None: 51.2; for secretion promoting action at low glucose concentration (in words): glucose at a low concentration (5 mmol/L)
Method: as §1
Separately, the effect of a compound on the insulin secretion in the presence of 5 mmol/L glucose was determined by measuring insulin amounts in cell culture supernatants collected as follows. MIN6 cells cultured on a 24-well plate were washed twice by using 1 mL of Buffer A containing 5 mmol/L glucose, and then the culture supernatant was changed to Buffer A (0.9 mL) containing a test compound at various concentrations and 5 mmol/L glucose. Then, the cells were incubated at 37° C. for 45 minutes (final glucose concentration: 5 mmol/L), and the culture supernatant was collected.
After the culture supernatant was diluted with a phosphate buffer containing 1% bovine serum albumin, 0.1% Tween 20, 0.12% disodium ethylenediaminetetraacetate (EDTA), and 0.1% sodium azide, antibody-reactive insulin secreted in the culture supernatant was qualified by enzyme immunoassay or radio immunoassay. The insulin level was indicated as the amount of human insulin (ng/mL). The results are indicated as average (avg) of 3 to 4 samples with standard error values (se).

SMILES | Insulin secretion amount (ng/mL) avg ([1]; drug concentration 10 μmol/L) | Insulin secretion amount (ng/mL) Avg ([2]; drug concentration 10 μmol/L) | secretion promoting action at low glucose concentration (in words) [2] | Insulin secretion amount (ng/mL) avg ([1]; drug concentration 0.1 μmol/L) | Insulin secretion amount (ng/mL) Avg ([2]; drug concentration 0.1 μmol/L)
CC(C)[C@H]1CC[C@H](C(=O)N[C@H](Cc2ccccc2)C(=O)O)CC1 [AY4166] | 195.1 ng/mL | 170.8 ng/mL | showed marked secretion promoting action | – | –
COc1ccc(Cl)cc1C(=O)NCCc1ccc(S(=O)(=O)NC(=O)NC2CCCCC2)cc1 [Glibenclamide] | – | – | showed marked secretion promoting action | 177.8 ng/mL | 156.8 ng/mL

Reference: patent publication US20060046992A1, “HETEROBICYCLIC COMPOUNDS” (priority 2002, published 2006)
